For data set [1] the following is noted: human, in vivo.
Protocol: (§1) For determination of the pharmacokinetic (PK) profile of docetaxel, blood samples were collected approximately 5 min before and 1, 2, 4 and 8 h after the start of docetaxel infusion (day 1) in cycles 1 and 2.
(§2) Samples were analysed using validated high-performance liquid chromatography tandem-mass spectrometry. PK parameters were calculated using WinNonlin® Professional (version 5.0.1, Pharsight® Corporation, Cary, NC, USA) and were assessed graphically and summarised by timepoint descriptive statistics using SAS.
The next data set is described as follows: clinical. The conditions noted are these: human, in vivo.
Data set [2] is described as follows: Plasma pharmacokinetics (HPLC tandem-mass spectrometry). The conditions noted are these: MTD group.
Protocol: as §1, §2
In a further data set the test system is advanced NSCLC. The conditions noted are these: cited from earlier work; for response rate: advanced NSCLC.
The conditions of data set [3]: docetaxel (day 1) followed by intermittent erlotinib (days 2–16 every 3 weeks), previously treated advanced NSCLC; cited from earlier work.
The subject of a further data set is advanced solid tumors. The conditions noted are these: intermittent high-dose gefitinib given prior to docetaxel; cited from earlier work.
Data set [4] in a line: Phase I dose escalation: MTD and dose-limiting toxicity. Type of data set: in vivo, patients. How it is done:
Docetaxel was initiated at 60 mg/m^2 IV infusion and increased to 75 mg/m^2 IV infusion in the absence of DLT.
A standard ‘3 + 3’ design was used. The MTD was defined as the highest dose of afatinib at which no more than one out of six patients experienced a DLT. Once the MTD was determined, a further 12 evaluable patients were included at the MTD level.

The next data set concerns HER2. The conditions noted are these: read-out: IC50 HER2; cited from earlier work.
For another data set, the system named is ErbB4. The conditions noted are these: read-out: IC50 ErbB4; cited from earlier work.

Where two headings read alike, the source gives them in different places.

Protocol for clinical: as §1, §2

Consider `CC(=O)O[C@@]12CO[C@@H]1C[C@H](O)[C@@]1(C)C(=O)[C@H](O)C3=C(C)[C@@H](OC(=O)[C@H](O)[C@@H](NC(=O)OC(C)(C)C)c4ccccc4)C[C@@](O)([C@@H](OC(=O)c4ccccc4)[C@H]21)C3(C)C` [docetaxel], for which, in data set [1], the “Docetaxel AUC0–24, gMean” value amounted to 2.68 µg·h/mL; the “Docetaxel AUC0–∞, gMean ratio cycle 2 to cycle 1” value worked out at 118%; the “Docetaxel CL, gMean” value is reported as 682 mL/min; the “Docetaxel Cmax, gMean” value worked out at 2.2 µg/mL. Further, in data set [1], the “Docetaxel Cmax, gMean ratio cycle 2 to cycle 1” value came out at 115%; the “Docetaxel VSS, gMean” value was found to be 487 L; the “Docetaxel Vz, gMean” value is listed as 1250 L; the “Docetaxel tmax, median” value is 1.00 h. For the same molecule, the half-life in “clinical” was 20.9 h. In the data set “clinical” (Docetaxel AUC0–24, gMean), this molecule registered an AUC(0-t) of 2.63 µg·h/mL. Further, in “clinical” (Docetaxel CL, gMean), the clearance was 712 mL/min. In “clinical” (Docetaxel Cmax, gMean), this molecule registered a Cmax of 2.07 µg/mL. Besides, the Vd in “clinical” (Docetaxel VSS, gMean) is 488 L. Further, the Vd in the data set “clinical” (Docetaxel Vz, gMean) was determined as 1290 L. The Tmax in the data set “clinical” (Docetaxel tmax, median) was 1 h. In addition, the AUC(0-inf) in the data set “clinical” (iv, 75 mg/m2) was 3.16 µg·h/mL. Further, in data set [2] (treatment cycle 2 (n = 8)), the “Docetaxel AUC0–∞, gMean” value came out at 3.26 µg·h/mL and the “Docetaxel t1/2, gMean” value is given as 21.1 h.
On to `C#Cc1cccc(Nc2ncnc3cc(OCCOC)c(OCCOC)cc23)c1` [erlotinib], for which the response rate is reported as 28% in the data set on advanced NSCLC (chemotherapy followed by erlotinib); 34% in the data set with advanced NSCLC (high-dose erlotinib (days 1 and 2) with carboplatin and paclitaxel (day 3)); 18% in the data set on advanced NSCLC (low-dose erlotinib, same schedule with carboplatin and paclitaxel). Besides, in the data set on advanced NSCLC (docetaxel (day 1) followed by intermittent erlotinib (days 2–16 every 3 weeks), previously treated advanced NSCLC), the objective response rate is on record as 35%. For the same molecule, the “grade 3/4 neutropenia” value in data set [3] was 60%.
In the case of `COc1cc2ncnc(Nc3ccc(F)c(Cl)c3)c2cc1OCCCN1CCOCC1` [gefitinib], the objective response rate with advanced solid tumors is reported as 11%.
In the case of `CN(C)C/C=C/C(=O)Nc1cc2c(Nc3ccc(F)c(Cl)c3)ncnc2cc1O[C@H]1CCOC1` [afatinib], the “maximum tolerated dose (MTD) of afatinib” value in [4] (afatinib days 2–4 with docetaxel 75 mg/m^2 day 1, 3-week cycles) turned out to be 90 mg/day. Moreover, in data set [4] (once daily for 3 days following docetaxel 75 mg/m^2), the “MTD and recommended phase II dose of afatinib” value worked out at 90 mg. Also, the AUC(0-t) stood at […] in the data set “clinical” and 0.879 µg·h/mL in “clinical” (75 mg/m2). The Tmax in the data set “clinical” turned out to be 4.03 h; in data set [2] (human, in vivo, Afatinib tmax, median, treatment cycle 1 (n = 13)), 3 h. For the same molecule, the highest level in the data set “clinical” (Afatinib Cmax, gMean) (Cmax) was 0.0714 µg/mL. The same molecule had a Vd/F in “clinical” (Afatinib Vz/F, gMean) of 1500 L. Besides, the concentration for half-maximal inhibition (IC50) was 14 nM in the data set on HER2 and […] in the data set with ErbB4.

What is called half-life is the time in which the quantity being followed falls by half. One may read the AUC(0-t) as the area under the concentration-time curve up to a stated or last time point. Lower therefore signals less exposure. The term clearance denotes a measure of how efficiently the substance is removed, as volume per time. Low values mean a low capacity for elimination, high ones a high capacity for elimination. Usually Cmax stands for the peak of the concentration-time curve. In general, Vd refers to a proportionality between amount in the body and measured concentration, not a real space. A low value points to little distribution into tissue. What is called Tmax is the time at which the peak concentration occurs. The term AUC(0-inf) denotes total exposure, with the tail of the curve extrapolated. High values mean high exposure, low ones low exposure. As a reminder, the Vd/F is the volume of distribution divided by bioavailability. As a reminder, the IC50 is the concentration that inhibits the measured activity by half.
